In patent US20260078114A1, “COMPOUND USED AS INHIBITOR OF CDK4 KINASE AND USE THEREOF” (TYK MEDICINES, INC., priority 2022, published 2026) one finds IC50 data, which are given here for ten compounds.

SMILES strings stand for the structures. Read-outs that look alike come from different tables or passages of the source.

Test [1] relates to ovarian cancer cell A2780. Briefly: Cellular antiproliferative assay (MTT, 5 days), A2780. The format is cell-based, human. To be noted: A2780 cells, 5 days incubation. Here is the method:
(§1) Human breast cancer cell MCF-7, ovarian cancer cell A2780, human mantle cell lymphoma cell JEKO-1. DMEM medium (Bio-Channel), DMSO (dimethyl sulfoxide), MTT (thiazolyl blue), 0.25% EDTA-Tripsin (tryptic digest), 1×PBS (phosphate buffer, PH7.2), 96-well plate (Corning), fetal bovine serum (FBS), 10,000 U/mL penicillin-G/streptomycin, high-speed cryo-centrifuge (EPPENDORF 5810R), enzyme-linked immunoassay (Tecan Spark).
(§2) • A) Tumor cells were cultured in DMEM (high sugar with 10% FBS and 100 U/mL penicillin-G/streptomycin) at 37° C., 5% CO2 and saturated humidity until 80-90% dense. • B) Removed the culture medium from 10 cm Petri dishes; • C) Rinsed the cells once with 10 ml 1×PBS; • D) Added 4 ml 0.25% EDTA-Tripsin into 37° C., 5% CO2 incubator for trypsin digestion for 5 minutes, transferred to 15 ml centrifuge tube, centrifuged at 200 g for 5 minutes, discarded the supernatant to get cell precipitate; • E) Resuspended with 4 ml DMEM medium, counted and adjust to 50,000 cells/ml. • F) Added cell suspension to 96-well plate with 100 μL per well volume and incubated overnight at 37° C., 5% CO2 incubator.
(§3) • A) Preparation of gradient dilution solution of the tested compound: the test compound was configured into 1 mM reservoir solution.
(§4) • A) Taking the cell culture plate and adding 10 μL of 5 mg/ml MTT in the biosafety cabinet; • B) Putting the cell culture plate back into the incubator and continued incubation for 3 hours; • C) Taking the cell culture plate and removing the culture medium, adding 100 μL isopropanol (containing 0.4 mM HCl, 0.1% NP-40), and shaking the bed at room temperature for 30 min; and • D) Determining the absorbance value by selecting 570 nm on a TECAN enzyme-linked immunoassay detector.
(§5) The % Cell Viability was calculated using the following formula:
(§6) [formula] • Lum_HC: 0.1% DMSO control cell reading • Lum_Sample: cell readings with compound added • Lum_LC: Blank medium reading

Test [2] has as its system Human breast cancer cell MCF-7. Nature of the test: Cellular antiproliferative assay (MTT, 5 days), MCF-7. The format is cell-based. The conditions noted are these: MCF-7 cells, 5 days incubation. The procedure:
as §1, §2, §3, §4, §5, §6

The subject of test [3] is human mantle cell lymphoma cell JEKO-1. Briefly: Cellular antiproliferative assay (MTT, 5 days), JEKO-1. The format is cell-based. The conditions noted are these: JEKO-1 cells, 5 days incubation. Here is the method: as §1, §2, §3, §4, §5, §6

For orientation: IC50 means the concentration that gives 50% inhibition.

Regarding `CC(C)n1c(N(C)C)nc2c(F)cc(-c3nc(Nc4ccc(N5CCNCC5)cn4)ncc3Cl)cc21` [TB-18, 6-(5-chloro-2-((5-(piperazin-1-yl)pyridin-2-yl)amino)pyrimidin-4-yl)-4-fluoro-1-isopropyl-N,N-dimethyl-1H-benzo[d]imidazol-2-amine], the IC50 in test [1] (Homo sapiens, 120 h) was no more than 500 nM; in test [2] (Homo sapiens, MCF7, 120 h), no more than 500 nM; in test [3] (Homo sapiens, 120 h), no more than 500 nM.

As to `CC1CCN(C)c2nc3c(F)cc(-c4nc(NC5CCN(S(C)(=O)=O)CC5)ncc4Cl)cc3n21` (stereo not drawn) [TB-51, 5-chloro-4-(9-fluoro-1,4-dimethyl-1,2,3,4-tetrahydrobenzo[4,5]imidazo[1,2-a]pyrimidin-7-yl)-N-(1-(methylsulfonyl)piperidin-4-yl)pyrimidin-2-amine], the IC50 is no more than 500 nM in test [1] (Homo sapiens, 120 h); no more than 500 nM in test [2] (Homo sapiens, MCF7, 120 h); no more than 500 nM in test [3] (Homo sapiens, 120 h).

Turning to `CCS(=O)(=O)N1CCC(Nc2ncc(Cl)c(-c3cc(F)c4nc5n(c4c3)CCCN5C)n2)CC1` [TB-143, 5-chloro-N-(1-(ethylsulfonyl)piperidin-4-yl)-4-(9-fluoro-1-methyl-1,2,3,4-tetrahydrobenzo[4,5]imidazo[1,2-a]pyrimidin-7-yl)pyrimidin-2-amina], the IC50 is no more than 500 nM in test [1] (Homo sapiens, 120 h); no more than 500 nM in test [2] (Homo sapiens, MCF7, 120 h); no more than 500 nM in test [3] (Homo sapiens, 120 h).

Take `CC1(C)CSc2nc3c(F)cc(-c4nc(N[C@@H]5CCOC[C@H]5O)ncc4Cl)cc3n2C1` [TB-146]: the IC50 in test [1], in test [2] (read-out: MCF7 IC50) and in test [3] was no more than 500 nM in each case.

Consider `CN1CCCn2c1nc1c(F)cc(-c3nc(NC4CCOCC4)ncc3Cl)cc12` [TB-132, 5-chloro-4-(9-fluoro-1-methyl-1,2,3,4-tetrahydrobenzo[4,5]imidazo[1,2-a]pyrimidin-7-yl)-N-(tetrahydro-2H-pyran-4-yl)pyrimidin-2-amine], for which the IC50 in test [1] (Homo sapiens, 120 h) is no more than 500 nM; in test [2] (Homo sapiens, MCF7, 120 h) it was 500 to 2000 nM; in test [3] (Homo sapiens, 120 h), no more than 500 nM.

With `CC(C)n1c(N2CC[C@@H](O)C2)nc2c(F)cc(-c3nc(N[C@@H]4CCOC[C@H]4O)ncc3Cl)cc21` [TB-7, (R)-1-(6-(5-chloro-2-(((3S,4R)-3-hydroxytetrahydro-2H-pyran-4-yl)amino)pyrimidin-4-yl)-4-fluoro-1-isopropyl-1H-benzo[d]imidazol-2-yl)pyrrolidin-3-ol], the IC50 in test [1] (Homo sapiens, 120 h) was no more than 500 nM; in test [2] (Homo sapiens, MCF7, 120 h), no more than 500 nM; in test [3] (Homo sapiens, 120 h), no more than 500 nM.

On to `CN1CCCn2c1nc1c(F)cc(-c3nc(N[C@@H]4CCOC[C@H]4O)ncc3F)cc12` [TB-42, (3S,4R)-4-((5-fluoro-4-(9-fluoro-1-methyl-1,2,3,4-tetrahydrobenzo[4,5]imidazo[1,2-a]pyrimidin-7-yl)pyrimidin-2-yl)amino)tetrahydro-2H-pyran-3-ol], for which the IC50 in test [1] (Homo sapiens, 120 h) is no more than 500 nM; in test [2] (Homo sapiens, MCF7, 120 h) it was no more than 500 nM; in test [3] (Homo sapiens, 120 h), no more than 500 nM.

`CN1CCCn2c1nc1c(F)cc(-c3nc(Nc4ccc(C#N)cc4)ncc3Cl)cc12` [TB-133, 4-((5-chloro-4-(9-fluoro-1-methyl-1,2,3,4-tetrahydrobenzo[4,5]imidazo[1,2-a]pyrimidin-7-yl)pyrimidin-2-yl)amino)benzonitrile]: the IC50 was no more than 500 nM in test [1] (Homo sapiens, 120 h); no more than 500 nM in test [2] (Homo sapiens, MCF7, 120 h); no more than 500 nM in test [3] (Homo sapiens, 120 h).

Regarding `CC(C)n1c(N2CCOC2=O)nc2c(F)cc(-c3nc(NC4CCN(S(=O)(=O)C5CC5)CC4)ncc3Cl)cc21` [TB-33], the IC50 in test [1] (Homo sapiens, 120 h) was no more than 500 nM; in test [2] (Homo sapiens, MCF7, 120 h) it was no more than 500 nM; in test [3] (Homo sapiens, 120 h), no more than 500 nM.

As for `CC(C)n1c(N2CCOC2=O)nc2c(F)cc(-c3nc(Nc4ccc(S(=O)(=O)NCCN(C)C)cc4)ncc3Cl)cc21` [TB-38, 4-((5-chloro-4-(4-fluoro-1-isopropyl-2-(2-oxooxazolidin-3-yl)-1H-benzo[d]imidazol-6-yl)pyrimidin-2-yl)amino)-N-(2-(dimethylamino)ethyl)benzenesulfonamide], the IC50 in test [1] (Homo sapiens, 120 h) was no more than 500 nM; in test [2] (Homo sapiens, MCF7, 120 h) it was no more than 500 nM; in test [3] (Homo sapiens, 120 h), no more than 500 nM.
